For 12 compounds, EC50 results are on record in patent US11377425B1, “Small molecule modulators of IL-17” (LEO Pharma A/S, priority 2018, dated 2022).

In this assay the target is T1, human IL-17AA (Homo sapiens, UniProt Q16552).
T1 construct: host or cells: HEK (human embryonic kidney) cells
T1 sequence (Q16552 24-155): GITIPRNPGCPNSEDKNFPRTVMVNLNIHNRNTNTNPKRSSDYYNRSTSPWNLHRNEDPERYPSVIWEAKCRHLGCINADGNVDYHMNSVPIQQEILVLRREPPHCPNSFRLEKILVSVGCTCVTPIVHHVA
Nature of the assay: IL-8 release assay in human epithelial keratinocytes adult (HEKa). The assay is classed as cell-based. The conditions noted are these: HEKa cells, 3 ng/mL HEK-human IL-17AA + 10 ng/mL human TNFalpha; read-out: Rel EC50 IL-8 release assay. Summed up:
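Adult human epidermal keratinocytes stimulated 68-72 h at 37 °C with 3 ng/mL HEK-derived human IL-17AA plus 10 ng/mL TNF-alpha (final) in the presence of compound; TNF-alpha alone defines 100% inhibition. Secreted IL-8 measured by HTRF as percent of controls; relative IC50/Emax from four-parameter fit (r^2>0.9), cytotoxicity by PrestoBlue.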

pEC50: −log10 of the molar value.

As to `Cc1n[nH]c(C)c1-c1ccc(NC(=O)[C@@H](NC(=O)c2ccnn2CCC(F)F)C(C2CC2)C2CC2)cc1` [Example 215, N-[(1S)-1-(dicyclopropylmethyl)-2-[4-(3,5-dimethyl-1H-pyrazol-4-yl)anilino]-2-oxo-ethyl]-2-(3,3-difluoropropyl)pyrazole-3-carboxamide], the negative logarithm of the EC50 (pEC50) – broadly, the negative decadic logarithm of the EC50, by convention in mol/L – was > 7.00.
Take `Cc1n[nH]c(C)c1-c1ccc(NC(=O)[C@@H](NC(=O)c2ccn[nH]2)C(C2CC2)C2CC2)cc1` [Example 216, N-[(1S)-1-(dicyclopropylmethyl)-2-[4-(3,5-dimethyl-1H-pyrazol-4-yl)anilino]-2-oxo-ethyl]-1H-pyrazole-5-carboxamide]: the pEC50 was 6.00 to 7.00.
For `Cc1n[nH]c(C)c1-c1ccc(NC(=O)[C@@H](NC(=O)c2ccnn2C(CF)CF)C(C2CC2)C2CC2)cc1` [Example 217], the pEC50 is > 7.00.
The same measure for `Cc1n[nH]c(C)c1-c1ccc(NC(=O)[C@@H](NC(=O)c2ccnn2C(C)CF)C(C2CC2)C2CC2)cc1` (stereo partly drawn) [Example 218, N-[(1S)-1-(dicyclopropylmethyl)-2-[4-(3,5-dimethyl-1H-pyrazol-4-yl)anilino]-2-oxo-ethyl]-2-(2-fluoro-methyl-ethyl)pyrazole-3-carboxamide]: > 7.00; for `Cc1n[nH]c(C)c1-c1ccc(NC(=O)[C@@H](NC(=O)c2ccnn2C2CCOC2)C(C2CC2)C2CC2)cc1` (stereo partly drawn) [Example 219, N-[(1S)-1-(dicyclopropylmethyl)-2-[4-(3,5-dimethyl-1H-pyrazol-4-yl)anilino]-2-oxo-ethyl]-2-tetrahydrofuran-3-yl-pyrazole-3-carboxamide]: > 7.00.
The figure for `Cc1n[nH]c(C)c1-c1ccc(NC(=O)[C@@H](NC(=O)c2ccnn2C)C(C)C2CCCCC2)cc1` (stereo partly drawn) [Example 220, N-[(1S)-2-cyclohexyl-1-[[4-(3,5-dimethyl-1H-pyrazol-4-yl)phenyl]carbamoyl]propyl]-2-methyl-pyrazole-3-carboxamide] is > 7.00; for `Cc1n[nH]c(C)c1-c1ccc(NC(=O)[C@@H](NC(=O)c2ccnn2C(C)C2CC2)C(C2CC2)C2CC2)cc1` (stereo partly drawn) [Example 222, 2-(1-cyclopropylethyl)-N-[(1S)-1-(dicyclopropylmethyl)-2-[4-(3,5-dimethyl-1H-pyrazol-4-yl)anilino]-2-oxo-ethyl]pyrazole-3-carboxamide] it is > 7.00.
As to `Cc1n[nH]c(C)c1-c1ccc(NC(=O)[C@H](CC2CCC2)NC(=O)c2ccnn2C)cc1` [Example 229, N-[(1S)-1-(cyclobutylmethyl)-2-[4-(3,5-dimethyl-1H-pyrazol-4-yl)anilino]-2-oxo-ethyl]-2-methyl-pyrazole-3-carboxamide], the negative logarithm of the EC50 (pEC50) was < 6.00.
On to `Cc1n[nH]c(C)c1-c1ccc(NC(=O)[C@@H](NC(=O)c2ccnn2C)C2CCCCC2(C)C)cc1` (stereo partly drawn) [Example 230, N-[(1S)-1-(2,2-dimethylcyclohexyl)-2-[4-(3,5-dimethyl-1H-pyrazol-4-yl)anilino]-2-oxo-ethyl]-2-methyl-pyrazole-3-carboxamide], for which the pEC50 is > 7.00.
The same measure for `Cc1n[nH]c(C)c1-c1ccc(NC(=O)[C@@H](NC(=O)c2ccnn2C)C2CCCC2(C)C)cc1` (stereo partly drawn) [Example 231, N-[(1S)-1-(2,2-dimethylcyclopentyl)-2-[4-(3,5-dimethyl-1H-pyrazol-4-yl)anilino]-2-oxo-ethyl]-2-methyl-pyrazole-3-carboxamide]: > 7.00; for `Cc1n[nH]c(C)c1-c1ccc(NC(=O)C(NC(=O)c2ccnn2C)C2CC3CC3C2)cc1` [Example 233, N-[(1S)-1-[(1R,55)-3-bicyclo[3.1.0]2-[4-(3,5-dimethyl-1H-pyrazol-4-yl)anilino]-2-oxo-ethyl]-2-methyl-pyrazole-3-carboxamide]: 6.00 to 7.00.
For the compound `Cc1n[nH]c(C)c1-c1ccc(NC(=O)[C@@H](NC(=O)c2ccnn2C)C2CCC(C)(C)CC2)cc1` [Example 238, N-[(1S)-1-(4,4-dimethylcyclohexyl)-2-[4-(3,5-dimethyl-1H-pyrazol-4-yl)anilino]-2-oxo-ethyl]-2-methyl-pyrazole-3-carboxamide], the pEC50 is 6.00 to 7.00.
